Results as given in patent publication US6727276B2, “Epothilone derivatives for the treatment of refractory tumors” (Bristol-Myers Squibb Company, priority 2001, dated 2004).
Like-named read-outs stand apart in the source and are kept apart here.

Tests used:
[1] = tested on: tubulin isolated from calf brain; format: biochemical
[2] = tested on: Pat-26 human pancreatic carcinoma; test: In vivo antitumor testing, Pat-26 xenograft
[3] = tested on: HCT116/VM46 cells; format: cell-based, human
[4] = tested on: A2780Tax ovarian carcinoma xenograft (mutated tubulin); parameters: species or system nude mice; details: mouse, in vivo
[5] = tested on: Pat-21 breast carcinoma; parameters: species or system nude mice; details: mouse, in vivo
[6] = tested on: Pat-7 human ovarian carcinoma
[7] = tested on: HCT116/VM46 human colon carcinoma xenograft; test: In vivo antitumor testing, HCT116/VM46 xenograft
[8] = In vivo antitumor testing, Pat-26 xenograft; details: Balb/c nu/nu, mouse, in vivo, iv
[9] = in vivo; details: Balb/c nu/nu, mouse
[10] = Water solubility
[11] = In vivo antitumor testing, HCT116/VM46 xenograft; details: Balb/c nu/nu, mouse, in vivo, iv
[12] = tested on: panel of tumor cell lines; test: Cytotoxicity assay (tetrazolium-based colorimetric), panel of tumor cell lines; details: 72 h, read-out: IC50 (median cytotoxic concentration)
[13] = paclitaxel, results obtained in separate studies

## Epothilone B [BMS-205535]
[1]
  Polymerization Potency, EC0.01: 1.8 µM
  Ratio of Polymerization Potency of Analog/Paclitaxel: 0.3

## C/C(=C\c1csc(C)n1)[C@@H]1C[C@@H]2O[C@@H]2CCC[C@H](C)[C@H](O)[C@@H](C)C(=O)C(C)(C)[C@@H](O)CC(=O)O1 [BMS-212188, Epothilone A]
[1]
  Ratio of Polymerization Potency of Analog/Paclitaxel: 0.4
[1]; concentration inducing initial slope of 0.01 OD/minute
  Polymerization Potency, EC0.01: 2.0 µM

## CC(=O)O[C@H]1C(=O)[C@@]2(C)[C@H]([C@H](OC(=O)c3ccccc3)[C@]3(O)C[C@H](OC(=O)[C@H](O)[C@@H](NC(=O)c4ccccc4)c4ccccc4)C(C)=C1C3(C)C)[C@]1(OC(C)=O)CO[C@@H]1C[C@@H]2O [Paclitaxel, paclitaxel, reference compound]
[2]; [13]
  LCK (gross log cell kill): 0.4
[3]
  ratio of concentration (R/S or resistance ratio) to inhibit cell growth by 50%: 155 fold
[4]
  LCK (gross log cell kill): 0.8
[5]
  LCK (gross log cell kill): 0.3
[6]; [13]
  LCK (gross log cell kill): 0.8
[7]; [13]
  LCK (gross log cell kill): 0.55

## C/C(=C\c1csc(CN)n1)[C@@H]1C[C@@H]2O[C@]2(C)CCC[C@H](C)[C@H](O)[C@@H](C)C(=O)C(C)(C)[C@@H](O)CC(=O)O1 (relative stereo) [BMS-310705, [1S-[1R*,3R*(E),7R*,10S*,11R*,12R*,16S*]]-7,11-dihydroxy-8,8,10,12,16-pentamethyl-3-[1-methyl-2-(2-aminomethyl-4-thiazolyl)ethenyl]-4,17-dioxabicyclo[14.1.0]heptadecane-5,9-dione]
[8]
  MTD: 10 mg/kg
[2]; BMS-310705, IV, q4dx3 at OD 10 mg/kg, Expt. 968
  LCK (gross log cell kill): 1.2
[9]; iv
  MTD: 8 mg/kg
[9]; po, pH 8
  MTD: 90 mg/kg
[1]
  Polymerization Potency, EC0.01: 7.4 µM
  Ratio of Polymerization Potency of Analog/Paclitaxel: 1.7
  tubulin polymerization potency relative to paclitaxel (fold more potent): about 2.5 fold
[5]
  LCK (gross log cell kill): >4.1
[6]; BMS-310705 (PO), PO, q4dx3 at OD/MTD 90 mg/kg, Expt. 18
  gross log cell kill (LCK): 2.4
[6]; BMS-310705, IV, q4dx3 at OD 8 mg/kg, Expt. 14
  LCK (gross log cell kill): 2.4
[6]; PO vs IV
  antitumor activity given orally compared with IV administration (in words): equivalent to that produced by IV drug administration
[6]; PO, every 4 days x 3 schedule, FIG. 4
  oral antitumor activity (in words): highly active orally
[10]
  water solubility (in words): highly water-soluble
[7]; BMS-310705, IV, q4dx3 at OD 7.5 mg/kg, Expt. 40
  LCK (gross log cell kill): 1.5
[11]
  MTD: 7.5 mg/kg
[12]
  IC50: 0.0009 to 0.0035 µM
